Test results published in the OligoGym collection.
These antisense oligonucleotides have a phosphorothioate backbone; sugars and methylation of C are not fully specified.

The sequences below were run against EGR1. Settings: ASO.
Also: test concentration or dose not given here.

Sequence | remaining target (mRNA or protein) (fraction of control)
GAGAGGAGAAGGAGGTGG | ≥ 1
GAAAATGTCAGTGTTCGG | ≥ 1
CCCCGCCGCCTCCACCGC | 0.38
TGCTGTCGTTGGATGGCA | ≥ 1
GTGGGCAGAAAGGATTGT | 0.8
AGATGGTGCTGAGGACGA | ≥ 1
TCTCCTCCTCCTGTCCTT | ≥ 1
AGAGGATCACCATTGGTT | ≥ 1
ATGTCCGAAAGCCCTGTG | ≥ 1
ATGCCTCTTGCGTTCATC | ≥ 1
CTCACTAGGCCACTGACC | ≥ 1
GATGGCGGCGGCGGCTCC | ≥ 1
TATCCAAAATCCATGCAA | ≥ 1
CCACTGGGCAAGCGTAAG | ≥ 1
CAGCAGCATCATCTCCTC | ≥ 1
TCTGCTTTCTTGTCCTTC | ≥ 1
GGGCCTGGCCGGGTTACA | 0.4
GGTAGGAAGAGAGAGAGG | ≥ 1

Sequence | remaining target (mRNA or protein) (fraction of control)
ACTCGATTTTCTAGCATT | ≥ 1
GTTTGATGAGCTGGGACT | ≥ 1
TCTTTCCCCTTTCCCTTT | 0.93
TGCTGACCTGGGCCGGGA | ≥ 1
GATGTCAGGAAAAGACTC | ≥ 1
GGTCCTGGGAGCCCGACT | ≥ 1
TCGAGTGGTTTGGCTGGG | ≥ 1
AACGGAACAACACTCTGA | ≥ 1
CGCAGGCGAAGGGCTTTT | ≥ 1
CGGCAGGGTAGGCAGGAG | 0.56
CATGGCACAGACACTGTA | ≥ 1
TGCGGATGTGGCGGGTGA | ≥ 1
CAAAAGGCACCAAGACGT | ≥ 1
CCTGCGGCGGCGGAAGCT | ≥ 1
CTCGCCCGTGTCCGCCTG | ≥ 1
GGTGAAGAACTTGGACAT | ≥ 1
GGAAGGGCTTCTGGTCTG | ≥ 1
TCGCTGCGGCTGAAGTTG | ≥ 1

These sequences were tested against IL15. Settings: ASO.

Sequence | remaining target (mRNA or protein) (fraction of control)
TCACATTCTTTGCATCCA | 0.31
CCAATACCATGAAGGCAT | 0.25
AAAAGAAAGGGAGGGAAT | ≥ 1
TTGTTATGTCTAAGCAGC | 0.47
ACACCTACCTTTTAATAA | ≥ 1
TTAGTAGCATTTAGGTAA | ≥ 1
TCATCTTCTTGACAGAAA | ≥ 1
GTATTGAAGAAGAGCTGG | ≥ 1
AGGCATTAGTAGAGTAAA | 0.92
AAGAAGTGTTGATGAACA | 0.83
TTAGCTGCATCCCAAAAT | 0.48
ACTGGGTATATTAGCTGC | 0.58
CTAGGGTAAAGTATGATC | ≥ 1
ATTTAGGTAAGCTACTCT | 0.75
ATGCATCACCTTTAATCT | 0.65
AGCTGGCTATGGCAAGGG | 0.35
GCCTCCTACAATACAATC | ≥ 1
GTACATGACAGCCAGGAT | 0.35
TACTTCTCAAATGTGGTT | ≥ 1
GTTAGGTGCTTTGGGCCA | 0.13
CTTTTAATAAGCACTCTA | ≥ 1
CCAGCTTCAGTTAGAAAA | ≥ 1
ATAATGGTATGGAGGAAG | 0.6
GCCCTGCACTGAAACAGC | 0.39
TACATTCACCCAGTTGGC | 0.24

These sequences were tested against REL. Settings: ASO.

Sequence | remaining target (mRNA or protein) (fraction of control)
CTTCCCGCAGGCAGCTCC | 0.56
TCATCGGCATTGTTGTAA | 0.54
CACAGTCTCACCACATTG | 0.39
ACTAATGTAATTCTCACT | ≥ 1
CTCCTCCTTCTTCCCGCC | 0.78
TCATTTATCATGCTGTTA | ≥ 1
ATTCTCAGTCAGTATTAT | 0.75
AATCCACTTGAGATGGGC | 0.74
CGGTTGTTGTCTGTGCTG | 0.38
ATGCTGCCTGCTGATCGC | 0.41
GAAGTCTTGGATTATCAG | ≥ 1
TTACTGTTACGGGTTCTG | 0.64
GAGGTTTATATGGGTCAT | ≥ 1
ACACGACAAATCCTTAAT | ≥ 1
AAACAGTAGTATTGGAAT | ≥ 1
ATTTGTATCTAAAACGCA | ≥ 1
CTTTTCCATAATAGTTCA | 0.85
TTTCTACGTGATCCTGGC | 0.85
TTTGCTTTATTGCCGTAA | ≥ 1
TCCCAAAGTGCTAGGATT | 0.7

Sequence | remaining target (mRNA or protein) (fraction of control)
GAATGGTGGGATACCTTG | 0.43
TTGTATTCGCTATGTCCA | 0.53
ATACGCACCGGAGGCCAT | ≥ 1
GTATTGCCTGAGCGTGGG | 0.57
AATGGATTGATTCCTGCC | ≥ 1
ATGCCTTTTGCTTCCCAA | 0.14
TCTTTCTGAACTTTGTCA | 0.98
GTCTCAAGTCTCTTGGGT | 0.41
CAAAATGCTGCATCTATA | 0.79
TCTCTCACAACTGCATCA | 0.58
AGTCAGGAGGCCGAGGGA | ≥ 1
TGTAATCCCAGCACTTTG | 0.73
GTCTGCGTTCTTGTCCAA | ≥ 1
CGAGACAACAGGAGGAAG | 0.8
CACAATTCTTGTTTACAC | 0.84
ACTGACTATCTTGAACAA | ≥ 1
TCATATTCACAGAACAAT | ≥ 1
CACTAACTTCCTGGTCAG | 0.48
CCATATAAATCTGCTGAT | ≥ 1
TGATCCACCCGCCTTGGC | ≥ 1

These sequences were tested against SUMO1. Settings: ASO.

Sequence | remaining target (mRNA or protein) (fraction of control)
ACTTCCATCTCCCACTGA | 0.47
TCCGTTTTGAACACCACA | 0.29
CAGTATGATTCTTTGAGT | 0.53
AAATCCTTCCCCTTCCCG | ≥ 1
TTCTTTGAGTTTCTTGAG | ≥ 1
TCCATCTCCCACTGAAAG | 0.53
GTCTTTGACAGTATGATT | ≥ 1
AGATGTGTTGTCATTTTC | ≥ 1
ACCACATTACAAAAGAAC | ≥ 1
ACATGATGACGGTGGCTT | ≥ 1
AGCAGTGTTCTGTTGTAT | ≥ 1
AGGATTGAGGGAAAAGAA | ≥ 1
ATTCACCTTCCTTCTTAT | 0.55
CCTCAAAGAGAAACCTGA | ≥ 1
ACTGCTATCCTGTCCAAT | 0.67
GGGTTTACAAATCCTTCC | ≥ 1
GGGTCTCCGCACAGCAGC | ≥ 1
ATAATGAATAATGAGCAC | ≥ 1
TCACCTTATCTGTCATCT | ≥ 1
CCCCTTCCCGACAGCACA | 0.92

Sequence | remaining target (mRNA or protein) (fraction of control)
CCACAGTTCAGTTCTCTG | 0.34
AAACAATAATGAATAATG | ≥ 1
TTCATTGGAACACCCTGT | 0.32
GATAAACTTCAATCACAT | ≥ 1
CTGTCCAATGACTTTGAG | ≥ 1
TGAATCTCACTGCTATCC | ≥ 1
CAGATGTTTCAAAGAGAT | ≥ 1
CCAGGAGTGAAGTAATCA | ≥ 1
GTTTCTTGAGATGTGTTG | 0.86
AACTTCCGCTACGCCTCG | ≥ 1
AATTTCCAGTATTTATGC | 0.45
TTCTTTTGGAGTATGATT | ≥ 1
CTTTGGAGTTAGTCATTA | ≥ 1
CTCAGTTGAAGGTTTTGC | ≥ 1
ATGATTCTTTGAGTTTCT | 0.59
GCAGTAACTTCCGCTACG | ≥ 1
TTCCTCCATTCCCAGTTC | ≥ 1
ACAATGAAAACAAACAAT | ≥ 1
ATTCTCTGACCCTCAAAG | ≥ 1
GGCACTTCAGTAACTTTC | 0.79
